From patent publication US20160075653A1, “NEMATICIDAL N-(PHENYLCYCLOALKYL)CARBOXAMIDES AND N-(PHENYLCYCLOALKYL)THIOCARBOXAMIDES” (BAYER CROPSCIENCE AKTIENGESELLSCHAFT, priority 2013, published 2016)
Where two headings read alike, the source gives them in different places.

How the values were obtained:
[1] = system: Meloidogyne incognita; experiment: Meloidogyne incognita test (MELGIN), gall formation on salad seedlings; type: in vivo; details: application rate 20 ppm, after 14 days
Description: Meioidovnve incomita—Test (MELGIN)
Solvent: 125.0 parts by weight of acetone
To produce a suitable preparation of active compound, 1 part by weight of active compound is mixed with the stated amount of solvent, and the concentrate is diluted with water to the desired concentration.
Vessels are filled with sand, a solution of the active ingredient, a suspension containing eggs and larvae of the southern root-knot nematode (Meloidogyne incognita) and salad seeds. The salad seeds germinate and the seedlings grow. Galls develop in the roots.
After 14 days the nematicidal activity is determined on the basis of the percentage of gall formation. 100% means that no galls were found; 0% means the number of galls found on the roots of the treated plants was equal to that in untreated control plants.

[2] = Measurement of log P values by HPLC on reversed phase columns (methods [a] pH 2.3, [b] pH 2.7, [c] pH 7.8); type: physicochemical; details: for chromatographic logP: reversed phase HPLC columns
How it was run: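 Determined per EEC Directive 79/831 Annex V.A8 by reversed-phase HPLC, 10-95% acetonitrile gradient: [a] pH 2.3, 0.1% phosphoric acid; [b] LC-MS, pH 2.7, 0.1% formic acid; [c] LC-MS, pH 7.8, 0.001 molar ammonium hydrogen carbonate. Calibrated with C3-C16 alkan-2-ones by retention-time interpolation.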

[3] = HPLC reversed phase, method [b] (pH 2.7)
[4] = HPLC reversed phase, method [c] pH 7.8
[5] = HPLC on reversed phase column, method [b], pH 2.7

| Compound | nematicidal activity (percentage of gall formation; 100% = no galls) [1] [%] | logP [2, 3] | further results |
| --- | --- | --- | --- |
| O=C(N[C@@H]1C[C@@H]1c1ccc(Cl)cc1)c1nccnc1C(F)(F)F (relative stereo) [Compound 532] | 100 | 2.68^[b] | logP [2, 4]: 2.65^[c]; |
| O=C(NC1CCC1c1ccc(Cl)cc1Cl)c1c(F)cccc1F (centres unmarked) [Compound 473] | 90 | 3.36^[b] | – |
| O=C(N[C@@H]1CC[C@@H]1c1ccc(F)cc1C(F)(F)F)c1nccnc1Cl (relative stereo) [Compound 516] | 100 | 2.89^[b] | – |
| O=C(NC1CCC1c1ccccc1C(F)(F)F)c1ccccc1 (centres unmarked) [Compound 426] | 100 | 3.08^[b] | – |
| O=C(N[C@@H]1C[C@@H]1c1ccc(Cl)cc1Cl)c1ccccc1[N+](=O)[O-] (relative stereo) [Compound 558] | 100 | 2.94^[b] | – |
| O=C(NC1CCCC1c1c(F)cccc1F)c1ccccc1I (centres unmarked) [Compound 322] | 90 | 3.40^[b] | – |
| O=C(NC1CCC1c1c(F)cccc1F)c1ccccc1I (centres unmarked) [Compound 440] | 90 | 3.13^[b] | – |
| O=C(N[C@@H]1CC[C@@H]1c1cccc(F)c1C(F)(F)F)c1ccc(Cl)cc1Cl (relative stereo) [Compound 594] | 90 | – | logP [2, 5]: 3.73^[b] |
| O=C(N[C@@H]1C[C@@H]1c1ccc(Cl)cc1Cl)c1ncccc1Cl (relative stereo) [Compound 649] | 100 | – | logP [2, 5]: 2.93^[b]; logP ([2]; HPLC on reversed phase column, method [c], pH 7.8): 2.91^[c]; |
| O=C(N[C@@H]1CC[C@@H]1c1ccc(Cl)cc1Cl)c1ccccc1Cl (relative stereo) [Compound 261] | 100 | 3.45^[b] | – |
| Cn1cc(C(=O)NC2CC2c2ccc(Cl)cc2)c(C(F)(F)F)n1 (centres unmarked) [Compound 11] | 90 | – | logP ([2]; HPLC on reversed phase columns, method [b], pH 2.7): 3.43^[b] |
| O=C(N[C@@H]1CC[C@@H]1c1cc(F)ccc1C(F)(F)F)c1c(F)cccc1F (relative stereo) [Compound 549] | 100 | 3.22^[b] | – |
| O=C(N[C@@H]1CC[C@@H]1c1cccc(F)c1C(F)(F)F)c1ncccc1Cl (relative stereo) [Compound 617] | 100 | – | logP [2, 5]: 2.97^[b] |
| O=C(N[C@@H]1CC[C@@H]1c1ccc(F)cc1C(F)(F)F)c1ccccc1C(F)(F)F (relative stereo) [Compound 495] | 100 | 3.51^[b] | – |
| O=C(N[C@@H]1CC[C@@H]1c1ccccc1Cl)c1ncccc1Cl (relative stereo) [Compound 247, cis-3-chloro-N-[2-(2-chlorophenyl)cyclobutyl]pyridine-2-carboxamide] | 100 | – | chromatographic logP ([2]; HPLC-MS, method letter not given, read-out: log P): 2.79; chromatographic logP ([2]; pH 2.7, HPLC reversed phase, method [b] (pH 2.7), read-out: logP): 2.79 |
| O=C(NC1CC1c1ccc(Cl)cc1)c1ccccc1C(F)(F)F (centres unmarked) [Compound 271] | 90 | 2.98^[b] | logP [2, 4]: 2.94^[c]; |
| O=C(N[C@@H]1CC[C@@H]1c1cccc(F)c1C(F)(F)F)c1c(F)cccc1F (relative stereo) [Compound 639] | 100 | – | logP [2, 5]: 3.08^[b] |
| O=C(NC1CCC1c1ccccc1C(F)(F)F)c1ccccc1Cl (centres unmarked) [Compound 432] | 100 | 3.30^[b] | – |
| O=C(N[C@@H]1CC[C@@H]1c1ccccc1C(F)(F)F)c1ccccc1[N+](=O)[O-] (relative stereo) [Compound 638] | 100 | – | logP [2, 5]: 2.93^[b] |
| O=C(NC1CCCC1c1ccc(Cl)cc1Cl)c1ccccc1I (centres unmarked) [Compound 352] | 100 | 4.04^[b] | – |
